From PubChem BioAssay AID1919002 (Molecular Pharmacology Branch, DTP, NCI, 2023)

System: 743489-274-T-PDC complex spheroid growth
Test: Anticancer human tumor 743489-274-T-PDC patient-derived renal cell carcinoma cell line growth inhibition [AhR]
Settings: for IC50: curve of first compound; for viability, T/C: stronger effect = lower value
Description: Multicellular complex tumor spheroid response to aryl hydrocarbon receptor antagonists in combination with a variety of drugs and investigational agents in selected tumor cell lines
The current study was undertaken to assess response to aryl hydrocarbon receptor antagonists in combination with standard-of-care drugs and investigational agents in solid tumor complex spheroid models. Complex spheroids include a stromal component modeled by human endothelial cells (HUVEC) and fibroblasts modeled by human mesenchymal stem cells (MSCs). The concentration ranges selected for each drug and investigational agent were based upon clinically achievable concentrations if the clinical Cmax of the agent was known.
Compounds. The drugs and investigational agents: BAY 2416964 (NSC825713), GNF351 (NSC835774), CH-223191 (NSC835775), CPI-455 (NSC825282), aza-TdCyd (NSC777586), decitabine (NSC127716), belinostat (NSC758774), entinostat (NSC756642), pevonedistat (NSC761192), tazemetostat (NSC777109), talazoparib (NSC765396), olaparib (NSC753686), selinexor (NSC780203), nedisertib (M3814, NSC802822), bortezomib (NSC756655), venetoclax (NSC766270), doxorubicin (NSC123127), elimusertib (BAY189344, NSC800525), ceralasertib (AZD6738, NSC777638), TAK-243 (NSC785004), alisertib (NSC759677), etoposide (NSC141540), topotecan (NSC609699), eribulin (NSC707389), gemcitabine (NSC613327), carboplatin (NSC241240), cisplatin (NSC119875), and SN-38 (NSC673596) were obtained from the National Cancer Institute (NCI) Developmental Therapeutics Program Chemical Repository (32). The FDA-approved anticancer drug set is available from the Developmental Therapeutics Program at https://dtp.cancer.gov/organization/dscb/obtaining/available plates.htm. […] The stock solutions were prepared in dimethyl sulfoxide (DMSO, Sigma-Aldrich, St. Louis, MO, cat. D2650), except for the platinum compounds which were prepared in saline (Quality Biological, Gaithersburg, MD, cat. 114-055-101), at 800-fold the tested concentration and stored at -70 degrees C prior to their use. All drugs and investigational agents were tested over a range starting from a high concentration at or near the clinical Cmax and decreasing in half-log increments. If the clinical Cmax for an agent had not been determined, the highest concentration tested was 10 microM (Table 1).
Cell Culture. All cells were maintained in an incubator at 37 degrees C and 5% CO2 with 95% humidity. The PDC lines were cultured according to standard operating procedures established by the NCI PDMR (https://pdmr.cancer.gov). Briefly, all PDCs were thawed and cultured in Matrigel-coated flasks prepared with a working solution of 1X Ham's F-12 nutrient mix, without supplementation (Invitrogen, Waltham, MA, cat. 11765054), 100 U/mL penicillin-streptomycin (Invitrogen, cat. 15140122), and 2.5% Matrigel (Corning Inc., Corning, NY, cat. 354248) for the first three passages. All PDCs were cultured in complete DMEM/F-12 media containing advanced DMEM/F-12 (Invitrogen, cat. 12634028), 4.9% defined fetal bovine serum, heat inactivated (HyClone Laboratories Inc., Logan, UT, cat. SH30070.03HI), 389 ng/mL hydrocortisone (Sigma-Aldrich, cat. H4001), 9.7 ng/mL human EGF recombinant protein (Invitrogen, cat. PHG0313), 23.4 microg/mL adenine (Sigma-Aldrich, cat. A2786), 97.3 U/mL penicillin-streptomycin (Invitrogen, cat. 15140122), 1.9 mM L-glutamine (Invitrogen, cat. 25030081), and 9.7 microM Y-27632 dihydrochloride (Tocris Bioscience, Bristol, United Kingdom, cat. 1254). The PDCs were cultured in complete DMEM/F12 media without 10 microM Y-27632 dihydrochloride for at least two passages prior to the screen. The established cell lines NCI-H1341 and […] were cultured in DMEM/F-12, HEPES (Invitrogen, cat. 11330032), 5% defined fetal bovine serum (HyClone Laboratories Inc., cat. SH30070.03), ITS premix universal culture supplement [insulin (5 microg/mL), transferrin (5 microg/mL), and selenious acid (5 ng/mL)] […]

[1] = second compound 0.1 µM, first compound 0.0316 µM
[2] = second compound 0.1 µM, first compound 0.1 µM
[3] = second compound 0.1 µM, first compound 0.316 µM
[4] = second compound 0.1 µM, first compound 1 µM
[5] = second compound 0.1 µM, first compound 3.16 µM
[6] = second compound 0.1 µM, first compound 10 µM
[7] = second compound 0.316 µM, first compound 0.0316 µM
[8] = second compound 0.316 µM, first compound 0.1 µM
[9] = second compound 0.316 µM, first compound 0.316 µM
[10] = second compound 0.316 µM, first compound 1 µM
[11] = second compound 0.316 µM, first compound 3.16 µM
[12] = second compound 0.316 µM, first compound 10 µM
[13] = second compound 1 µM, first compound 0.0316 µM
[14] = second compound 1 µM, first compound 0.1 µM
[15] = second compound 1 µM, first compound 0.316 µM
[16] = second compound 1 µM, first compound 1 µM
[17] = second compound 1 µM, first compound 3.16 µM
[18] = second compound 1 µM, first compound 10 µM
[19] = second compound 3.16 µM, first compound 0.0316 µM
[20] = second compound 3.16 µM, first compound 0.1 µM
[21] = second compound 3.16 µM, first compound 0.316 µM
[22] = second compound 3.16 µM, first compound 1 µM
[23] = second compound 3.16 µM, first compound 3.16 µM
[24] = second compound 3.16 µM, first compound 10 µM
[25] = second compound 10 µM, first compound 0.0316 µM
[26] = second compound 10 µM, first compound 0.1 µM
[27] = second compound 10 µM, first compound 0.316 µM
[28] = second compound 10 µM, first compound 1 µM
[29] = second compound 10 µM, first compound 3.16 µM
[30] = second compound 10 µM, first compound 10 µM
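Also: spheroids exposed to agents for 7 days before readout.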
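For viability, T/C in this document: 100% = DMSO vehicle control wells.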

`CC(C)CC(NC(=O)C(Cc1ccccc1)NC(=O)c1cnccn1)B(O)O` (stereo not given) + CC(CO)NC(=O)c1cc(-c2ccc(Cl)cc2)nn(-c2cnn(C)c2)c1=O showed an IC50 (second compound 0.1 µM) of 21.3 nM, an IC50 (second compound 0.316 µM) of 21.5 nM and an IC50 (second compound 1 µM) of 19.8 nM. It also gave an IC50 (second compound 3.16 µM) of 18.2 nM, an IC50 (second compound 10 µM) of 16.6 nM and a viability, T/C (second compound 0.1 µM, first compound 0.000949 µM) of 106%. It also gave a viability, T/C (second compound 0.1 µM, first compound 0.003 µM) of 102%, a viability, T/C (second compound 0.1 µM, first compound 0.00949 µM) of 104% and a viability, T/C (second compound 0.1 µM, first compound 0.03 µM) of 27.3%. For the same compound, the viability, T/C (second compound 0.1 µM, first compound 0.0949 µM) was 10.7%, the viability, T/C (second compound 0.1 µM, first compound 0.3 µM) was 4.68% and the viability, T/C (second compound 0.316 µM, first compound 0.000949 µM) was 90.2%. It also gave a viability, T/C (second compound 0.316 µM, first compound 0.003 µM) of 102%, a viability, T/C (second compound 0.316 µM, first compound 0.00949 µM) of 102% and a viability, T/C (second compound 0.316 µM, first compound 0.03 µM) of 30.3%. The viability, T/C (second compound 0.316 µM, first compound 0.0949 µM) was 11.1%, the viability, T/C (second compound 0.316 µM, first compound 0.3 µM) was 4.81% and the viability, T/C (second compound 1 µM, first compound 0.000949 µM) was 90.5%. The viability, T/C (second compound 1 µM, first compound 0.003 µM) was 104%, the viability, T/C (second compound 1 µM, first compound 0.00949 µM) was 94.9% and the viability, T/C (second compound 1 µM, first compound 0.03 µM) was 24.6%. For the same compound, the viability, T/C (second compound 1 µM, first compound 0.0949 µM) was 9.8%, the viability, T/C (second compound 1 µM, first compound 0.3 µM) was 4.5% and the viability, T/C (second compound 3.16 µM, first compound 0.000949 µM) was 94.3%. The viability, T/C (second compound 3.16 µM, first compound 0.003 µM) was 96.7%, the viability, T/C (second compound 3.16 µM, first compound 0.00949 µM) was 87.1% and the viability, T/C (second compound 3.16 µM, first compound 0.03 µM) was 21.2%. It also gave a viability, T/C (second compound 3.16 µM, first compound 0.0949 µM) of 10.7%, a viability, T/C (second compound 3.16 µM, first compound 0.3 µM) of 3.25% and a viability, T/C (second compound 10 µM, first compound 0.000949 µM) of 98%. It also gave a viability, T/C (second compound 10 µM, first compound 0.003 µM) of 111%, a viability, T/C (second compound 10 µM, first compound 0.00949 µM) of 85.4% and a viability, T/C (second compound 10 µM, first compound 0.03 µM) of 12.6%. It also gave a viability, T/C (second compound 10 µM, first compound 0.0949 µM) of 10.3% and a viability, T/C (second compound 10 µM, first compound 0.3 µM) of 4.28%.
Compound `Nc1ccccc1NC(=O)c1ccc(CNC(=O)OCc2cccnc2)cc1` + CC(CO)NC(=O)c1cc(-c2ccc(Cl)cc2)nn(-c2cnn(C)c2)c1=O has an IC50 (second compound 0.1 µM) of 4810 nM, an IC50 (second compound 0.316 µM) of 3740 nM and an IC50 (second compound 1 µM) of 4310 nM. The IC50 (second compound 3.16 µM) was 1740 nM, the IC50 (second compound 10 µM) was 1080 nM and the viability, T/C [1] was 92.7%. For the same compound, the viability, T/C [2] was 92.3%, the viability, T/C [3] was 92.9% and the viability, T/C [4] was 72.5%. For the same compound, the viability, T/C [5] was 61.8%, the viability, T/C [6] was 32.9% and the viability, T/C [7] was 89.1%. It also gave a viability, T/C [8] of 80.9%, a viability, T/C [9] of 87.9% and a viability, T/C [10] of 62.6%. For the same compound, the viability, T/C [11] was 55.4%, the viability, T/C [12] was 34.6% and the viability, T/C [13] was 92.5%. For the same compound, the viability, T/C [14] was 91%, the viability, T/C [15] was 80.5% and the viability, T/C [16] was 78.4%. The viability, T/C [17] was 56.4%, the viability, T/C [18] was 29.7% and the viability, T/C [19] was 88.4%. The viability, T/C [20] was 88.5%, the viability, T/C [21] was 78% and the viability, T/C [22] was 59.7%. For the same compound, the viability, T/C [23] was 39.7%, the viability, T/C [24] was 27.7% and the viability, T/C [25] was 79.1%. It also gave a viability, T/C [26] of 87.3%, a viability, T/C [27] of 69.2% and a viability, T/C [28] of 52.4%. It also gave a viability, T/C [29] of 31.3% and a viability, T/C [30] of 23.4%.
With `O=C(c1cc(Cc2n[nH]c(=O)c3ccccc23)ccc1F)N1CCN(C(=O)C2CC2)CC1` + CC(CO)NC(=O)c1cc(-c2ccc(Cl)cc2)nn(-c2cnn(C)c2)c1=O the IC50 (second compound 0.1 µM) was > 10000 nM, the IC50 (second compound 0.316 µM) was > 10000 nM and the IC50 (second compound 1 µM) was > 10000 nM. For the same compound, the IC50 (second compound 3.16 µM) was > 10000 nM, the IC50 (second compound 10 µM) was > 10000 nM and the viability, T/C [1] was 106%. It also gave a viability, T/C [2] of 100%, a viability, T/C [3] of 98.3% and a viability, T/C [4] of 103%. For the same compound, the viability, T/C [5] was 95.3%, the viability, T/C [6] was 101% and the viability, T/C [7] was 86.3%. For the same compound, the viability, T/C [8] was 95.2%, the viability, T/C [9] was 91.8% and the viability, T/C [10] was 91.9%. For the same compound, the viability, T/C [11] was 91%, the viability, T/C [12] was 96.1% and the viability, T/C [13] was 93.4%. It also gave a viability, T/C [14] of 96.3%, a viability, T/C [15] of 100% and a viability, T/C [16] of 93.1%. It also gave a viability, T/C [17] of 94.8%, a viability, T/C [18] of 97% and a viability, T/C [19] of 93.6%. The viability, T/C [20] was 92.5%, the viability, T/C [21] was 99.4% and the viability, T/C [22] was 87.5%. It also gave a viability, T/C [23] of 96.4%, a viability, T/C [24] of 92.9% and a viability, T/C [25] of 103%. It also gave a viability, T/C [26] of 109%, a viability, T/C [27] of 97.9% and a viability, T/C [28] of 96.7%. For the same compound, the viability, T/C [29] was 93.7% and the viability, T/C [30] was 105%.
